Results reported in patent US20130230459A1, “RADIOLABELLED mGluR2 PET LIGANDS” (Janssen Pharmaceuticals, Inc., priority 2010, published 2013).
Several values for one entry are separate records, joined by “and”; a condition that tells them apart may be missing. Equal values may be shown once.

Experiments:
Assay type in all cases: in vivo, Wistar rats
[1] = Plasma radiometabolite analysis (30 min p.i.); conditions: n = 2
Procedure: The metabolic stability of [^11C]B-4, [^11C]B-2, [^11C]B-7, and [^11C]B-10 was studied in healthy male Wistar rats by determination of the relative amounts of parent tracer and radiometabolites in plasma at 30 min p.i. of the tracer. After intravenous (i.v.) administration of about 74 MBq of the radioligand via tail vein under anesthesia (2.5% Isoflurane in O2 at 1 L/min flow rate), rats were sacrificed by decapitation at 30 min p.i. (n=2). Blood was collected in heparin containing tubes (4.5 mL LH PST tubes; BD vacutainer, BD, Franklin Lakes, N.J., USA) and stored on ice to stop the metabolism. Next, the blood was centrifuged for 5 min at 3000 rpm to separate the plasma. About 0.5 mL of plasma was spiked with about 10 μg of the authentic non-radioactive compound (1 mg/mL solution) and injected on to HPLC, which was connected to a Chromolith® performance column (C18, 3 mm×100 mm, Merck KGaA, Darmstadt, Germany). The mobile phase consisted of 0.05 M NaOAc buffer (pH 5.5) (solution A) and CH3CN (solvent B). The following method was used for the analysis: isocratic elution with 100% A for 4 min at a flow rate of 0.5 mL/min, linear gradient to 90% B by 9 min at a flow rate of 1 mL/min, and isocratic elution with mixture of 10% A and 90% B until 12 min. After passing through the UV detector (254 nm), the HPLC eluate was collected as 1 mL fractions (fraction collection each minute) using an automatic fraction collector and the radioactivity of these fractions was measured using an automated gamma counter.

[2] = Perfused brain radiometabolite analysis (30 min p.i.)
Procedure: The relative amounts of parent tracer and radiometabolites in perfused cerebellum and cerebrum at 30 min p.i. of the tracer was determined in healthy male Wistar rats for [^11C]B-4, [^11C]B-2, [^11C]B-7, and [^11C]B-10. After i.v. administration of about 74 MBq of the radioligand via tail vein under anesthesia (2.5% Isoflurane in O2 at 1 L/min flow rate), rats were sacrificed by administering an overdose of Nembutal (CEVA Santé Animale, 200 mg/kg intraperitoneal). When breathing had stopped, the rats were perfused with saline (Mini Plasco®, Braun, Melsungen, Germany) until the liver turned pale. Brain was isolated, cerebrum and cerebellum were separated and homogenized in 3 mL and 2 mL of CH3CN, respectively, for about 2 min. A volume of 1 mL of this homogenate was diluted with an equal volume of water and a part of this homogenate was filtered through a 0.22 μm filter (Millipore, Bedford, USA). About 0.5 mL of the filtrate was diluted with 0.1 mL of water and spiked with 10 μg of authentic non-radioactive compound (1 mg/mL solution) for identification of the intact tracer. The cerebrum/cerebellum extract was then injected onto an HPLC system consisting of an analytical XBridge® column (C18, 5 μM, 3 mm×100 mm, Waters) eluted with a mixture of 0.05 M NaOAc buffer (pH 5.5) and CH3CN (60:40 v/v) at a flow rate of 0.8 mL/min. The HPLC eluate was collected as 1 mL fractions (fraction collection each minute) after passing through the UV detector (254 nm), and the radioactivity in the fractions was measured using an automated gamma counter.

mGluR2 = target: T1, mGluR2 (Rattus norvegicus, UniProt P31421); assay: MicroPET imaging: baseline, blocking and chase experiments; conditions: for % reduction of SUV (total brain) due to chase: chase compound B 4 mg/kg i.v.; for average SUV (total brain) after chase: 4650-5250 sec p.i.; for character of tracer binding to mGluR2 in vivo: concluded from blocking/chase microPET experiments; for SUV (total brain) before chase: maximum SUV; for SUV (total brain) before chase / SUV (total brain) after chase: chase compound B 4 mg/kg i.v. 30 min after tracer; for SUV (total brain) after chase: minimum SUV
T1 construct: from tissue; host or cells: brain of living male Wistar rats (in vivo microPET)
Procedure: Imaging experiments were performed on a Focus™ 220 microPET scanner (Concorde Microsystems, Knoxyille, Tenn., USA) using healthy male Wistar rats. During all scan sessions, animals were kept under gas anesthesia (2.5% isoflurane in O2 at 1 L/min flow rate).
Dynamic scans of 90 min were acquired. After reconstruction of the images (filtered back projection), they were spatially normalized to an in-house created [^11C]raclopride template of the rat brain in Paxinos coordinates. Automated and symmetric volumes of interest (VOIs) were generated for different brain regions (striatum, cortex, cerebellum, hippocampus, hypothalamus, thalamus, substantia nigra, nucleus accumbens and lateral globus pallidus) from which time-activity curves (TAC) were constructed for each individual scan, using PMOD software (v 3.1, PMOD Technologies Ltd.). The radioactivity concentration in the different brain regions was expressed as SUV as a function of time p.i. of the radiotracer by normalization for body weight of the animal and injected dose.
Rats were injected with 30-60 MBq of high specific activity formulation of [^11C]B-4, [^11C]B-2, [^11C]B-7, or [^11C]B-10 via the tail vein under isoflurane anesthesia (2.5% in O2 at 1 L/min flow rate).
For pretreatment and displacement experiments, compound A, compound B or ritanserin were dissolved and administered in a vehicle containing 20% (2-hydroxypropyl)-β-cyclodextrine and two equivalents hydrochloric acid. The ritanserin solution was protected from light.
A self-blocking study was done by subcutaneous (s.c.) administration of the authentic reference material (for [^11C]B-4) at ˜30 min prior to the radiotracer injection. Displacement studies were performed by i.v. injection of compound B at dose 4, 1, 0.3 and 0.1 mg/kg, compound A at dose 1 mg/kg or ritanserin at dose 0.3 mg/kg. All chase compounds were injected ˜30 min after radiotracer injection. A wash-out period of at least four days was maintained between the different pretreatment and displacement studies.
[^11C]B-4 was evaluated in vivo in three rats which were scanned dynamically for 90 min using μPET. The first rat was used for a baseline scan. The second rat was pretreated with authentic reference material B-4 via s.c. administration (dose 10 mg/kg) at 30 min prior to tracer injection. The third rat was used in a chase experiment and was injected i.v. with authentic reference material B-4 (dose 3 mg/kg) 30 min after tracer injection.
Two rats were injected with high specific activity tracer ([^11C]B-4, [^11C]B-2, [^11C]B-7, or [^11C]B-10) and scanned dynamically for 90 min. The first rat was scanned baseline, the second rat was injected i.v. with compound B (dose 4 mg/kg) 30 min after tracer injection. Table 16 gives an overview of the maximum and minimum SUV values in the chase experiment for the four studied tracers.
A chase experiment was performed for [^11C]B-2 with different doses of compound B (4, 1, 0.3, 0.1 mg/kg). The chase compound was injected i.v. 30 min after tracer injection. Table 17 gives an overview of the average SUV values before and after injection of the chase for the total brain.

T1 sequence (P31421 19-872): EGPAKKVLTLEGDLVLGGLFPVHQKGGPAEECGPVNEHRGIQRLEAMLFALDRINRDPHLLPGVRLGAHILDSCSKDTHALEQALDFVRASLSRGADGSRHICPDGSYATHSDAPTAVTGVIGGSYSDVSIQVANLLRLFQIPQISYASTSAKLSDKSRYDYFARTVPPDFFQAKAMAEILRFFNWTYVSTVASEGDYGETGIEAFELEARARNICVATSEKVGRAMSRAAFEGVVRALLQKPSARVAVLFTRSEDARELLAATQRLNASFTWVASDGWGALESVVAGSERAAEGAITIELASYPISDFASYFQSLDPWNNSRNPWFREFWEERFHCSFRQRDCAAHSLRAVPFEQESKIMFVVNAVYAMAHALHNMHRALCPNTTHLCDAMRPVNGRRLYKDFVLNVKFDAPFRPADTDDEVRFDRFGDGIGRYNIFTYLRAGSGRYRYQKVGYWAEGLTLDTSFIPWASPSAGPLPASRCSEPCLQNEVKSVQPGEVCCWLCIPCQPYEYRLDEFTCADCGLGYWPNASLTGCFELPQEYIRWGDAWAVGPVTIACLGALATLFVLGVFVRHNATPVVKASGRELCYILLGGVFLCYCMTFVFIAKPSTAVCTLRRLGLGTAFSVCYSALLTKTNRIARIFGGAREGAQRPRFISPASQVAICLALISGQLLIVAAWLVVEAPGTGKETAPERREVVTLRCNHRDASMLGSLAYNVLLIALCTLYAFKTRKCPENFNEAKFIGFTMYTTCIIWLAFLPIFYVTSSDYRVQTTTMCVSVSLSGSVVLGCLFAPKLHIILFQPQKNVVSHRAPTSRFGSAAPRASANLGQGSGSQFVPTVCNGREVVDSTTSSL

Row | SMILES | Intact tracer in rat plasma [1] | Polar metabolites in rat plasma [1] [%] | intact tracer in perfused cerebellum [2] [%] | intact tracer in perfused cerebrum [2] [%] | polar metabolite in perfused cerebellum [2] [%] | polar metabolite in perfused cerebrum [2] [%] | recovered radioactivity present as intact tracer, on average, in both cerebrum and cerebellum [2] | % reduction of SUV (total brain) due to chase (mGluR2) [%] | character of tracer binding to mGluR2 in vivo (mGluR2) | SUV (total brain) before chase (mGluR2) | SUV (total brain) after chase (mGluR2) | also measured
1 | [11CH3]Oc1c(F)ccc(F)c1C1CCN(c2ccn3c(CC4CC4)nnc3c2Cl)CC1 [[^11C]B-2, 8-chloro-3-(cyclopropylmethyl)-7-[4-(3,6-difluoro-2-[^11C]methoxyphenyl)-1-piperidinyl]-1,2,4-triazolo[4,3-a]pyridine] | 70% and 69.7 ± 5.1% | 30.3 ± 5.1 | 95.5 ± 1.3 | 90.3 ± 0.3 | 4.1 ± 1.5 | 9.7 ± 0.3 | about 90% | 73 | binds reversible, specific and selective to mGluR2 | 1.4 | 0.38 | average SUV (total brain), baseline (mGluR2; baseline scan, 930-1650 sec p.i.): 1.26; % reduction of SUV (total brain) (mGluR2; compound B 0.1 mg/kg): 50%; average SUV (total brain) before chase (mGluR2; compound B 0.1 mg/kg, 930-1650 sec p.i.): 1.35; average SUV (total brain) after chase (mGluR2; compound B 0.1 mg/kg): 0.67; % reduction of SUV (total brain) (mGluR2; compound B 0.3 mg/kg): 64%; average SUV (total brain) before chase (mGluR2; compound B 0.3 mg/kg, 930-1650 sec p.i.): 2.15; average SUV (total brain) after chase (mGluR2; compound B 0.3 mg/kg): 0.78; % reduction of SUV (total brain) (mGluR2; compound B 1 mg/kg): 66%; average SUV (total brain) before chase (mGluR2; compound B 1 mg/kg, 930-1650 sec p.i.): 1.78; average SUV (total brain) after chase (mGluR2; compound B 1 mg/kg): 0.61; % reduction of SUV (total brain) (mGluR2; compound B 4 mg/kg): 74%; average SUV (total brain) before chase (mGluR2; compound B 4 mg/kg, 930-1650 sec p.i.): 1.36; average SUV (total brain) after chase (mGluR2; compound B 4 mg/kg): 0.36
2 | [11CH3]Oc1ccc(F)cc1C1CCN(c2ccn3c(CC4CC4)nnc3c2Cl)CC1 [[^11C]B-4, 8-chloro-3-(cyclopropylmethyl)-7-[4-[5-fluoro-2-[^11C]methoxyphenyl]-1-piperidinyl]-1,2,4-triazolo[4,3-a]pyridine] | 41.0 ± 7.1% | 59.0 ± 7.1 | 92.7 | 92.4 | 7.3 | 7.6 | about 90% | 70 | binds reversible and specific to mGluR2 | 1.05 | 0.32 | effect of self-chase on brain radioactivity (mGluR2; B-4 3 mg/kg i.v. 30 min after tracer): significant displacement; effect of self-blocking on brain uptake (mGluR2; B-4 10 mg/kg s.c. 30 min prior to tracer): lower brain uptake and faster wash-out; time at which maximum radioactivity concentration in brain is reached (mGluR2; baseline scan): about 9 min p.i.; time until which maximum radioactivity concentration stays constant (mGluR2; baseline scan, followed by wash-out): about 27 min p.i.
3 | [11CH3]Oc1cc(F)cc(F)c1C1CCN(c2ccn3c(CC4CC4)nnc3c2Cl)CC1 [[^11C]B-7, 8-chloro-3-(cyclopropylmethyl)-7-[4-[2,4-difluoro-6-[^11C]methoxyphenyl]-1-piperidinyl]-1,2,4-triazolo[4,3-a]pyridine] | 30.8 ± 7.0% | 69.2 ± 7.0 | 95.5 | 92.9 | 4.5 | 7.1 | about 90% | 58 | – | 1.2 | 0.5 | –
4 | [11CH3]Oc1ccc(F)c(F)c1C1CCN(c2ccn3c(CC4CC4)nnc3c2Cl)CC1 [[^11C]B-10, 8-chloro-3-(cyclopropylmethyl)-7-[4-[2,3-difluoro-6-[^11C]methoxyphenyl]-1-piperidinyl]-1,2,4-triazolo[4,3-a]pyridine] | 45.5 ± 2.1% | 54.5 ± 2.1 | 96.4 | 93.1 | 3.6 | 6.9 | about 90% | 58 | – | 1.2 | 0.5 | –
